2 compounds from PMC12430443, “Discovery of Novel Benzamide-Based Sigma-1 Receptor Agonists with Enhanced Selectivity and Safety” (Molecules, 2025) can be followed below.

The term inhibition denotes the relative decrease from the control value, in per cent.

Common to all, as to assay: Transporter inhibition in overexpressing cell lines
Holding throughout (format): in vitro ADME

For one data set, the target named is ABST (Homo sapiens, UniProt Q12908). To be noted: SLC family, n = 2, read-out: Drug transport inhibition ABST. As for the experimental part:
(§1) Microsomal stability was evaluated using human liver microsomes at 10 µM (Table 3). […] Since cytochrome P450 (CYP) enzymes—especially families 1 to 3—play major roles in drug metabolism, CYP inhibition was tested against the human isoforms CYP1A, 2B6, 2C8, 2C9, 2C19, 2D6, and 3A, as recommended by FDA and EMA guidelines. […] Membrane transport proteins, including the ATP-binding cassette (ABC) and solute carrier (SLC) families, affect drug pharmacokinetics and potential drug–drug interactions. The inhibitory effects of compounds 2 and 6 were assessed against five ABC transporters (P-gp, BCRP, MRP1, MRP2, and MRP3) and seven SLC transporters (OAT1, OAT3, OATP1B1, OCT1, OCT2, ASBT, and NTCP).
(§2) Standardized in vitro ADME experiments were performed by Eurofins Cerep (Poitiers, France). Solubility assays were performed in PBS at pH 7.4, but also in simulated gastric fluid (SGF) and intestinal fluid (SIF), through the classical shake-flask method described by Lipinski et al., using HPLC-UV/VIS technology. The results were expressed in µM. The compound was classically evaluated at 10 µM for all of the ADME analyses. Bidirectional permeability (apical A to basolateral B pH 6.5/7.4, and basolateral B to apical A pH 7.4/6.5) was assessed in the epithelial colorectal adenocarcinoma cell line (Caco-2 cell line). The results were expressed as ×10^−6 cm/s (Papp) and as % recovery. The efflux ratio, i.e., Papp (B→A)/Papp(A→B), was calculated. Plasma protein binding was analyzed by HPLC-MS/MS after 4 h of incubation at 37 °C, as described by Banker et al.. Concentration was evaluated by LC/MS-MS. CYP inhibition was performed in human liver microsomes as described in [28]. Analysis of the respective metabolites was performed by HPLC-MS/MS. Transporter inhibition analysis was also performed in overexpressing cell lines. Respective metabolites for each specific transporter substrate were analyzed by fluorometry or scintillation counting, and % inhibition of control values were calculated. P-glycoprotein transporter substrate assessment was performed by bidirectional permeability analysis (apical A to basolateral B pH 7.4/7.4, and basolateral B to apical A pH 7.4/7.4) in the Caco-2 cell line with and without verapamil, as described in [26]. The results were expressed as ×10^−6 cm/s (Papp) and as % recovery. The efflux ratio was calculated as Papp(B→A)/Papp(A→B). CYP450 induction was assessed in human hepatocytes by measuring the mRNA levels of seven CYP isoforms via qPCR, as described in [40]. The compound was tested at 1, 10, and 100 μM, and fold-induction values were compared with predefined cut-off thresholds for each isoform and hepatocyte lot.

Another data set deals with BCRP (Homo sapiens, UniProt Q9UNQ0). To be noted: ABC family, n = 2, read-out: Drug transport inhibition BCRP. On the procedure:
as §1, §2

The next data set concerns the target MRP1 (Homo sapiens, UniProt P33527). To be noted: ABC family, n = 2, read-out: Drug transport inhibition MRP1. On the procedure: as §1, §2
Another data set has as its target MRP2 (Homo sapiens, UniProt Q92887). To be noted: ABC family, n = 2, read-out: Drug transport inhibition MRP2. On the procedure:
as §1, §2

The next data set concerns the target MRP3 (Homo sapiens, UniProt O15438). To be noted: ABC family, n = 2, read-out: Drug transport inhibition MRP3. As for the experimental part: as §1, §2
The target in the next data set is NTCP (Homo sapiens, UniProt Q14973). To be noted: SLC family, n = 2, read-out: Drug transport inhibition NTCP. On the procedure:
as §1, §2

The target in the next data set is OAT1 (Homo sapiens, UniProt Q4U2R8). To be noted: SLC family, n = 2, read-out: Drug transport inhibition OAT1. On the procedure: as §1, §2
Another data set addresses OAT3 (Homo sapiens, UniProt Q8TCC7). To be noted: SLC family, n = 2, read-out: Drug transport inhibition OAT3. As for the experimental part: as §1, §2
Another data set addresses OATP1B1 (Homo sapiens, UniProt Q9Y6L6). To be noted: SLC family, n = 2, read-out: Drug transport inhibition OATP1B1. As for the experimental part: as §1, §2
Another data set deals with OCT1 (Homo sapiens, UniProt O15245). To be noted: SLC family, n = 2, read-out: Drug transport inhibition OCT1. On the procedure:
as §1, §2

In a further data set the target is OCT2 (Homo sapiens, UniProt O15244). To be noted: SLC family, n = 2, read-out: Drug transport inhibition OCT2. On the procedure:
as §1, §2

A further data set addresses P-gp (Homo sapiens, UniProt P08183). To be noted: ABC family, n = 2, read-out: Drug transport inhibition P-gp. As for the experimental part:
as §1, §2

Sequence of NTCP (Q14973 whole entry): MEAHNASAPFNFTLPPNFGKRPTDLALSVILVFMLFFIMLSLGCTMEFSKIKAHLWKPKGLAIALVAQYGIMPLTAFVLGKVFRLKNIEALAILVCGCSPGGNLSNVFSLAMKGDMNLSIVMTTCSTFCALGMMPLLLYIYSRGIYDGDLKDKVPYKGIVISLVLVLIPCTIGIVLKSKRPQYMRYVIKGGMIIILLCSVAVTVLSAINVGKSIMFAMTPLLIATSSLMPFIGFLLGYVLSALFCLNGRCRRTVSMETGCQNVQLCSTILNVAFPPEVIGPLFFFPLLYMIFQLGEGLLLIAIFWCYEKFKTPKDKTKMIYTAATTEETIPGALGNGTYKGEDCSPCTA
Sequence of BCRP (Q9UNQ0 whole entry): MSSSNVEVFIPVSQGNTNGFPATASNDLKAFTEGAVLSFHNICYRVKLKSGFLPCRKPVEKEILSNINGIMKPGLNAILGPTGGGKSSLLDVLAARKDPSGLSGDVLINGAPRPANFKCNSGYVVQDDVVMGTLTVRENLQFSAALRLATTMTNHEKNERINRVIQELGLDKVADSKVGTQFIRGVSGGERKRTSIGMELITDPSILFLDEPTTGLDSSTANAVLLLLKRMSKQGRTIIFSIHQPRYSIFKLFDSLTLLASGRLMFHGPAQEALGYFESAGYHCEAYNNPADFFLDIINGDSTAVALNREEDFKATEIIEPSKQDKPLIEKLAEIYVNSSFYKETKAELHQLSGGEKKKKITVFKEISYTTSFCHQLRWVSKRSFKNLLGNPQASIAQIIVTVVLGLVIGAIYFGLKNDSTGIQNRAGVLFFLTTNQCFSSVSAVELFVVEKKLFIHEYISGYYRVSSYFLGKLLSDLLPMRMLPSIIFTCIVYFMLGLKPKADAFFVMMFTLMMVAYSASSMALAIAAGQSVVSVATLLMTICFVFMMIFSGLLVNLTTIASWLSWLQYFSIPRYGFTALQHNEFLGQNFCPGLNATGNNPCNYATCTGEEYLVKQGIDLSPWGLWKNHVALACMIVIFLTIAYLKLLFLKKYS
Sequence of OCT2 (O15244 whole entry): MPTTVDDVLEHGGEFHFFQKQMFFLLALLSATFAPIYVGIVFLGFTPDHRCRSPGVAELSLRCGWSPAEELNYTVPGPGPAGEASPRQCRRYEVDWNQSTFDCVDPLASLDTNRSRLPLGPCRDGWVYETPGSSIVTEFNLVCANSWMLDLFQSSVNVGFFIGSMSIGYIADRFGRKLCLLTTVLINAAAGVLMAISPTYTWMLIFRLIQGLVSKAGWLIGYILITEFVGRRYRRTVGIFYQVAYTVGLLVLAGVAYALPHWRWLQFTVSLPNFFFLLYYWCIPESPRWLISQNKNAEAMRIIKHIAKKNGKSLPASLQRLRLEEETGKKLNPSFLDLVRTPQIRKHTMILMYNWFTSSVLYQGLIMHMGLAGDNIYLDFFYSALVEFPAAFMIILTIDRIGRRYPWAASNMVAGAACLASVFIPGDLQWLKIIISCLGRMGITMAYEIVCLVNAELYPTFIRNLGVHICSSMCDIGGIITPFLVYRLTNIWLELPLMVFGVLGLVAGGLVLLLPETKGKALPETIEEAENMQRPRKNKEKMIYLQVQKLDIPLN
Sequence of OCT1 (O15245 whole entry): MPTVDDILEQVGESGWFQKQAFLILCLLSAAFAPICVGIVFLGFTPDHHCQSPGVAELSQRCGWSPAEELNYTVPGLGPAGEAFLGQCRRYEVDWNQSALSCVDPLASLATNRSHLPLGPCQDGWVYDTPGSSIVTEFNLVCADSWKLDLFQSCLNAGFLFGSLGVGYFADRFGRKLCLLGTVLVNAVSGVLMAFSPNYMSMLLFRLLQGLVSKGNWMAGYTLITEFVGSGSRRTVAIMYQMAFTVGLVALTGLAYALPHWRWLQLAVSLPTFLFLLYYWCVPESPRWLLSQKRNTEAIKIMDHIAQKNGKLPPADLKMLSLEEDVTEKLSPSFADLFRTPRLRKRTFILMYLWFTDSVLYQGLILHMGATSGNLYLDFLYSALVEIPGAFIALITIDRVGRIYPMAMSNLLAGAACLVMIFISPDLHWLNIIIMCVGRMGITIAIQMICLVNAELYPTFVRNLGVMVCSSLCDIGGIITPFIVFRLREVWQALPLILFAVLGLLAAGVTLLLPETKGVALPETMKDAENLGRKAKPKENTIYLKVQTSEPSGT
Sequence of P-gp (P08183 whole entry): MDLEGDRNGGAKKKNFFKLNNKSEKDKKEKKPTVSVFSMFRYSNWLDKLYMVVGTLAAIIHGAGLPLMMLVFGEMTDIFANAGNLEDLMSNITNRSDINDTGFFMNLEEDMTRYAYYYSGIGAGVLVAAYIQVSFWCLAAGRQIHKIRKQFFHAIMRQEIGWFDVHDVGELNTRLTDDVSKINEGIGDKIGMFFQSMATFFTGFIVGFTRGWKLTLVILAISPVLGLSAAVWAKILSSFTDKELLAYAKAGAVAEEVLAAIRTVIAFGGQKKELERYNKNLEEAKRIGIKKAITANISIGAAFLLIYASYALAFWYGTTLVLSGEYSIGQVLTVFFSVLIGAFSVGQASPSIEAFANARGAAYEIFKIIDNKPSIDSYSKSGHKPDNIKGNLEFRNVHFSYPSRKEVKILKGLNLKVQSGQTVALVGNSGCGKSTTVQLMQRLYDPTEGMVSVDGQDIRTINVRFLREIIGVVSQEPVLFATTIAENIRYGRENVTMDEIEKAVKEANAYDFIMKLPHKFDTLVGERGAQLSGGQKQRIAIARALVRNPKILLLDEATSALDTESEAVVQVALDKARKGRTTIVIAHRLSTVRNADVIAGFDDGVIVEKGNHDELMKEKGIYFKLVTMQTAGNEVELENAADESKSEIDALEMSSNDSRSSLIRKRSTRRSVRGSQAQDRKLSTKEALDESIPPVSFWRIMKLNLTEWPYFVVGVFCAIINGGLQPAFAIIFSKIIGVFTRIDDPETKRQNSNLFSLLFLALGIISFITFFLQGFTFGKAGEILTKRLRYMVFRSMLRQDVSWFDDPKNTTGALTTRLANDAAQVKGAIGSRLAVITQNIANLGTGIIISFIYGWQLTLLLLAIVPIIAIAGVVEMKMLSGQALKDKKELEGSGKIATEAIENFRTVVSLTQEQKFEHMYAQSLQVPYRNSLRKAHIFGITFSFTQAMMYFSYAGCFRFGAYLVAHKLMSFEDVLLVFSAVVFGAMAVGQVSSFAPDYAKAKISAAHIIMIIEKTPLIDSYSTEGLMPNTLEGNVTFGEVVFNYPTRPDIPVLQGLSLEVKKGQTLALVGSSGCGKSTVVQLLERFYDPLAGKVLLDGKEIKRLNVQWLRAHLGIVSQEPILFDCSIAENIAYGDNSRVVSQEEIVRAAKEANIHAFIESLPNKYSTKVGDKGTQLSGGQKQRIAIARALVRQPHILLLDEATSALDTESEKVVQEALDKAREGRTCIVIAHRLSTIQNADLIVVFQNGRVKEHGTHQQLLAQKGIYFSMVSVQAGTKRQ
Sequence of OAT3 (Q8TCC7 whole entry): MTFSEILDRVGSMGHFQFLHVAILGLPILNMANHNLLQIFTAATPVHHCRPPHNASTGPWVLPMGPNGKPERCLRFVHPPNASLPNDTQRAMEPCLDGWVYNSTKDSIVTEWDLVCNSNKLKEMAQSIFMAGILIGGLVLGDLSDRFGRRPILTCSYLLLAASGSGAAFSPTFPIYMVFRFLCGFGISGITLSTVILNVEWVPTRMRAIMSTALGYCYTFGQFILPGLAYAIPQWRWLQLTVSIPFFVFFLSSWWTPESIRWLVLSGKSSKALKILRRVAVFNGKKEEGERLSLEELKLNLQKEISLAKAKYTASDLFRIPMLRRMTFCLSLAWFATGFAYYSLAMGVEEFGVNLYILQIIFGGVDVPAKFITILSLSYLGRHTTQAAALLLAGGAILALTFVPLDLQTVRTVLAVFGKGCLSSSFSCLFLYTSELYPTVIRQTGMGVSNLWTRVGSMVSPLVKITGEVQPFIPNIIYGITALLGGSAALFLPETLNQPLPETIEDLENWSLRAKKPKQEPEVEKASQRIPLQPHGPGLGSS
Sequence of ABST (Q12908 whole entry, canonical isoform): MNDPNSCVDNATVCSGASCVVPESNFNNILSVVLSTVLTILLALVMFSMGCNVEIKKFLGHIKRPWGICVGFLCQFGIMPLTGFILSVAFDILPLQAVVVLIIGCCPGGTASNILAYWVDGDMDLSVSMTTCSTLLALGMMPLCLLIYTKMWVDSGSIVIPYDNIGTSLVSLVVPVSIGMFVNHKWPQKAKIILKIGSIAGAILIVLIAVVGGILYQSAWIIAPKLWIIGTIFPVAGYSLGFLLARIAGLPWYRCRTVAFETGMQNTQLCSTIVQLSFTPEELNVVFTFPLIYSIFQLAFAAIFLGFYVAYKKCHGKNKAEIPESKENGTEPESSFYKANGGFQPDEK
Sequence of OATP1B1 (Q9Y6L6 whole entry): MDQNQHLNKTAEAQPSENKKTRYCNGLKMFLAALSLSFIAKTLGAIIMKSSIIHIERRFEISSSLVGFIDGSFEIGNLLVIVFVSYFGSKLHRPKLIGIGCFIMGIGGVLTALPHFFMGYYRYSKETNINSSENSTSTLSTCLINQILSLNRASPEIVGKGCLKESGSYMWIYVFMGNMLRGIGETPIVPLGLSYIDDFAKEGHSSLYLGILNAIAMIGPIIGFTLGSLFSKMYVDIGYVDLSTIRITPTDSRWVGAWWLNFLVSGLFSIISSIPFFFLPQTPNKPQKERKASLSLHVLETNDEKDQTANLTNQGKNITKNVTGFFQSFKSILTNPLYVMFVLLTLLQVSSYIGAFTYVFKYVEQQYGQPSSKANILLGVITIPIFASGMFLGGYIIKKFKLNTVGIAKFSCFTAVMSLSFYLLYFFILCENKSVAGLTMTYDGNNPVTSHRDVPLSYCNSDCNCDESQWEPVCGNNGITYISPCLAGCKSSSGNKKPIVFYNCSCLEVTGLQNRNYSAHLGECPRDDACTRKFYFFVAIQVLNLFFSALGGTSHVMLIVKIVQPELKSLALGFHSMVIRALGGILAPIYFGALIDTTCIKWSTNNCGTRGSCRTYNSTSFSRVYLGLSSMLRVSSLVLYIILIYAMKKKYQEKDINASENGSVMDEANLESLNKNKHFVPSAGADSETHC

Consider `CN(CCC(=O)NCc1cccc(Cl)c1)Cc1ccccc1` [Compound 2, 3-(Benzylmethylamino)-N-(3-chlorobenzyl)propanamide], for which the inhibition at 10 µM at ABST was 21.8%; at BCRP, -9%; on MRP1 it was -0.3%; on MRP2 it was 5.6%; at MRP3, 0.7%; on NTCP it was 8.7%. Moreover, the inhibition at 10 µM at OAT1 is -23.1%; at OAT3, 33.3%; on OATP1B1 it was 3.9%; on OCT1, 19.9%; at OCT2 it was 54.1%; on P-gp it was 4.7%.
Take `CN(CCC(=O)NCc1ccc(C#N)cc1)Cc1ccccc1` [Compound 6, 3-(Benzylmethylamino)-N-(4-cyanobenzyl)propanamide]: the inhibition at 10 µM was -8.9% on ABST; -5.8% on BCRP; -1.1% on MRP1; 3.3% at MRP2; 0.4% on MRP3; -12.5% at NTCP. Besides, the inhibition at 10 µM at OAT1 is -25.8%; on OAT3 it was 27.8%; on OATP1B1 it was 1.3%; at OCT1, 2.4%; at OCT2, 59.3%; on P-gp, 4.7%.
